The results in this text go back to patent publication US9340537B2, “Benzamide derivatives for inhibiting the activity of ABL1, ABL2 and BCR-ABL1” (NOVATIS AG, priority 2012, dated 2016).

SMILES strings stand for the structures. Where two headings read alike, the source gives them in different places.

The subject of assay [1] is Ba/F3-BCR-ABL1-T315I cells. The experiment in a line: Proliferation assay Ba/F3-BCR-ABL1-T315I cells. Format: cell-based, murine. To be noted: Mus musculus.
Description: (§1) The murine bone marrow-derived cell line Ba/F3 was used to generate the appropriate cell line models. […] These cells are referred to as Ba/F3-WT.
(§2) To generate Ba/F3 cells that depend on BCR-ABL1 expression for growth and survival, Ba/F3 cells were engineered to express BCR-ABL1 using retroviral transduction with a MSCV based retroviral vector containing a p210 BCR-ABL1expression cassette. […] These cells are referred to as Ba/F3-BCR-ABL-WT. […] These cells are referred to as Ba/F3-BCR-ABL-T315I.
(§3) Ba/F3-WT cells were maintained in RPMI1640 media with L-glutamine, HEPES (Lonza), 10% FBS (Gibco) and 5 ng/ml IL-3 (Calbiochem). Ba/F3-BCR-ABL1-WT cells and Ba/F3-BCR-ABL1-T315I cells were maintained in RPMI1640 media with L-glutamine, HEPES (Lonza) and 10% FBS (Gibco).
(§4) For each cell line, the cell density was adjusted to 50 000 cells/mL and 50 μL (2500 cells) added per well of a 384-well assay plate.
(§5) Test compounds were resuspended in DMSO at a concentration of 10 mM. A serial three-fold dilution of each compound with DMSO was performed in 384-well plates using the Janus Liquid Dispenser (PerkinElmer). Compound was delivered to the assay plates containing 2500 cells in a 50 μL volume via Acoustic delivery from an ATS-100 (EDC).
(§6) Cells were incubated at 37° C. in a humidified environment with 5% carbon dioxide for 48 hours. Britelite plus solution (Perkin Elmer) was prepared according to the manufacturer's instructions and 25 μL added to each well of the assay plate. […] The degree of luminescence correlates with the number of cells in each well. The effect of each inhibitor concentration can therefore be calculated and IC50 values generated.
The target of assay [2] is T1, ABL1 (64-515) (Homo sapiens (Human), UniProt P00519). The experiment in a line: Caliper ABL1 (64-515) microfluidic mobility shift kinase assay. To be noted: read-out: Caliper ABL1 (64-515) IC50.
T1 sequence (P00519 64-515): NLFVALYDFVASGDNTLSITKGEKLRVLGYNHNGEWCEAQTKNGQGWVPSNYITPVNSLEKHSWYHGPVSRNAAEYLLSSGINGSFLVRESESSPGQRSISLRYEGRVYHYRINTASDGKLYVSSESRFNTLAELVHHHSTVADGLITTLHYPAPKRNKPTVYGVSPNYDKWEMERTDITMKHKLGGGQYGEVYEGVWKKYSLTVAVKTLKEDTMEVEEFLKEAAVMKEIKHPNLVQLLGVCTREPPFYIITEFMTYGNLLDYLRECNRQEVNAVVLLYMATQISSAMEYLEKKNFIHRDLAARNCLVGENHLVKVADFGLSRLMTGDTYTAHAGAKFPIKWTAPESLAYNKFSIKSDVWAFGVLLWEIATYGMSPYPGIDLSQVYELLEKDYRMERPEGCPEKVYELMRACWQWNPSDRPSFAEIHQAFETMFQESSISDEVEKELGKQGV
Assay [3] addresses T1, ABL1 (64-515). The experiment in a line: Radio ABL1 (64-515) radiometric filter-binding kinase assay. To be noted: 20 μM ATP. Format: biochemical.
Protocol: Pre-incubation of enzyme with compounds (when stated) was performed by exposing the enzyme to compounds prior to addition of the substrate mixture (ATP and/or peptide substrate). […] Filter-plates were washed 3× with 0.5% H3PO4, followed by addition of 30 μL scintillation cocktail (Microscint, Perkin Elmer) per well and then analysed in a TopCount NXT scintillation counter (Perkin Elmer). Results were expressed as IC50 values.
In a further assay the test system is Ba/F3-BCR-ABL1-WT cells. The experiment in a line: Proliferation assay Ba/F3-BCR-ABL1-WT cells. Format: cell-based, murine. To be noted: Mus musculus.
Another assay has as its system BCR-ABL1+KCL-22 cells. The experiment in a line: Acquired resistance in BCR-ABL1+KCL-22 cells in vitro. Format: cell-based. To be noted: single agent, cells treated every 3-4 days.
Where [4] appears, read: 48 hours, Britelite luminescence, read-out: Ba/F3-BCR-ABL1-T315I IC50.
Setting [5] is: 48 hours, Britelite luminescence, read-out: Ba/F3-BCR-ABL1-WT IC50.

Description for Ba/F3-BCR-ABL1-WT cells: as §1, §2, §3, §4, §5, §6

As for `O=C(Nc1ccc(OC(F)(F)Cl)cc1)c1cnc(N2CC[C@@H](O)C2)c(-c2ccc[nH]2)c1` [Example 22, (R)—N-(4-(Chlorodifluoromethoxy)phenyl)-6-(3-hydroxypyrrolidin-1-yl)-5-(1H-pyrrol-2-yl)nicotinamide], the IC50 was 0.027 µM in assay [1] (setting [4]), below 0.13 nM at ABL1 (64-515) [2], 2.4 nM on ABL1 (64-515) [3] and 0.0008 µM in the assay on Ba/F3-BCR-ABL1-WT cells (setting [5]).

Regarding `CC1(O)CN(c2ncc(C(=O)Nc3ccc(OC(F)(F)F)cc3)cc2-c2ncc[nH]2)C1` [Example 69, 6-(3-Hydroxy-3-methylazetidin-1-yl)-5-(1H-imidazol-2-yl)-N-(4-(trifluoromethoxy)phenyl)nicotinamide], the IC50 in assay [1] (setting [4]) is 0.395 µM; at ABL1 (64-515) [2], 0.2 nM; on ABL1 (64-515) [3] it was 0.2 nM; in the assay on Ba/F3-BCR-ABL1-WT cells (setting [5]), 0.0243 µM.

With `CN(C)C(=O)c1ccc(-c2cc(C(=O)Nc3ccc(OC(F)(F)Cl)cc3)cnc2N2CC[C@@H](O)C2)[nH]1` [Example 73, (R)—N-(4-(Chlorodifluoromethoxy)phenyl)-5-(5-(dimethylcarbamoyl)-1H-pyrrol-2-yl)-6-(3-hydroxypyrrolidin-1-yl)nicotinamide], the IC50 turned out to be 0.007 µM in assay [1] (setting [4]), 1.1 nM on ABL1 (64-515) [2] and 0.0004 µM in the assay with Ba/F3-BCR-ABL1-WT cells (setting [5]).

Consider `O=C(Nc1ccc(OC(F)(F)Cl)cc1)c1cnc(N2C[C@H](O)[C@@H](F)C2)c(-c2ccn[nH]2)c1` (relative stereo) [Example 75, N-(4-(Chlorodifluoromethoxy)phenyl)-6-(trans-3-fluoro-4-hydroxypyrrolidin-1-yl)-5-(1H-pyrazol-5-yl)nicotinamide], for which the IC50 came to 0.017 µM in assay [1] (setting [4]), 0.5 nM on ABL1 (64-515) [2], 3 nM at ABL1 (64-515) [3] and 0.0012 µM in the assay with Ba/F3-BCR-ABL1-WT cells (setting [5]).

For the molecule `Cc1cn(-c2cc(NC(=O)c3ccc(C)c(Nc4nccc(-c5cccnc5)n4)c3)cc(C(F)(F)F)c2)cn1` [nilotinib], in the assay with BCR-ABL1+KCL-22 cells, the “time until acquired resistance” value lay within 18 to 21 days.

As to `Cc1cnc(-c2cc(C(=O)Nc3ccc(OC(F)(F)F)cc3)cnc2N2CC[C@@H](O)C2)[nH]1` [Example 72, (R)-6-(3-Hydroxypyrrolidin-1-yl)-5-(5-methyl-1H-imidazol-2-yl)-N-(4-(trifluoromethoxy)phenyl)nicotinamide], the IC50 turned out to be 0.074 µM in assay [1] (setting [4]), 4.2 nM at ABL1 (64-515) [2] and 0.0045 µM with Ba/F3-BCR-ABL1-WT cells (setting [5]).

On to `O=C(Nc1ccc(OC(F)(F)F)cc1)c1cnc(N2CC[C@@H](O)C2)c(-c2ncc[nH]2)c1` [Example 70, (R)-6-(3-Hydroxypyrrolidin-1-yl)-5-(1H-imidazol-2-yl)-N-(4-(trifluoromethoxy)phenyl)nicotinamide], for which the IC50 in assay [1] (setting [4]) was found to be 0.106 µM; at ABL1 (64-515) [2], 6.4 nM; with Ba/F3-BCR-ABL1-WT cells (setting [5]), 0.0058 µM.

`O=C(Nc1ccc(OC(F)(F)Cl)cc1)c1cnc(N2CCCC3(CCN3)C2)c(-c2ccn[nH]2)c1` (stereo not drawn) [Example 61, N-(4-(Chlorodifluoromethoxy)phenyl)-5-(1H-pyrazol-5-yl)-6-(1,6-diazaspiro[3.5]nonan-6-yl)nicotinamide]: the IC50 is 1.04 µM in assay [1] (setting [4]), 4.5 nM at ABL1 (64-515) [2], 3 nM on ABL1 (64-515) [3] and 0.0493 µM in the assay with Ba/F3-BCR-ABL1-WT cells (setting [5]).

With `N#Cc1ccc(-c2cc(C(=O)Nc3ccc(OC(F)(F)F)cc3)cnc2N2CC[C@@H](O)C2)[nH]1` [Example 30, (R)-5-(5-Cyano-1H-pyrrol-2-yl)-6-(3-hydroxypyrrolidin-1-yl)-N-(4-(trifluoromethoxy)phenyl)nicotinamide], the IC50 was 0.022 µM in assay [1] (setting [4]), 0.7 nM at ABL1 (64-515) [2], 6 nM on ABL1 (64-515) [3] and 0.0011 µM with Ba/F3-BCR-ABL1-WT cells (setting [5]).

For the molecule `O=C(Nc1ccc(OC(F)(F)F)cc1)c1cnc(N2CC[C@@H](O)C2)c(-c2cncs2)c1` [Example 10, (R)-6-(3-Hydroxypyrrolidin-1-yl)-5-(thiazol-5-yl)-N-(4-(trifluoromethoxy)phenyl)nicotinamide], the IC50 in assay [1] (setting [4]) stood at 0.05 µM; on ABL1 (64-515) [2], 0.5 nM; at ABL1 (64-515) [3], 5.3 nM; in the assay with Ba/F3-BCR-ABL1-WT cells (setting [5]), 0.0025 µM.

As for `C[C@@]1(O)CCN(c2ncc(C(=O)Nc3ccc(OC(F)(F)F)cc3)cc2-c2ccn[nH]2)C1` [Example 14, (R)-6-(3-Hydroxy-3-methylpyrrolidin-1-yl)-5-(1H-pyrazol-5-yl)-N-(4-(trifluoromethoxy)phenyl)nicotinamide], the IC50 came to 0.134 µM in assay [1] (48 h, read-out: Ba/F3-BCR-ABL1-T315I IC50 [μM]) and 0.0048 µM in the assay with Ba/F3-BCR-ABL1-WT cells (48 h, read-out: Ba/F3-BCR-ABL1-WT IC50 [μM]).

Turning to `O=C(Nc1ccc(OC(F)(F)F)cc1)c1cnc(N2CC[C@@H](O)C2)c(-c2ccc[nH]2)c1` [Example 6, (R)-6-(3-Hydroxypyrrolidin-1-yl)-5-(1H-pyrrol-2-yl)-N-(4-(trifluoromethoxy)phenyl)nicotinamide], the IC50 was determined as 0.106 µM in assay [1] (setting [4]), 1.3 nM at ABL1 (64-515) [2], 9 nM at ABL1 (64-515) [3] and 0.0045 µM in the assay on Ba/F3-BCR-ABL1-WT cells (setting [5]).

Regarding `O=C(Nc1ccc(OC(F)(F)F)cc1)c1cnc(N2CC[C@@H](O)C2)c(-c2ccoc2)c1` [Example 7, (R)-5-(Furan-3-yl)-6-(3-hydroxypyrrolidin-1-yl)-N-(4-(trifluoromethoxy)phenyl)nicotinamide], the IC50 in assay [1] (setting [4]) is 0.674 µM; at ABL1 (64-515) [3] it was below 3 nM; with Ba/F3-BCR-ABL1-WT cells (setting [5]), 0.0059 µM.

As to `O=C(Nc1ccc(OC(F)(F)Cl)cc1)c1cnc(N2CC[C@@H](O)C2)c(-c2ncc[nH]2)c1` [Example 71, (R)—N-(4-(Chlorodifluoromethoxy)phenyl)-6-(3-hydroxypyrrolidin-1-yl)-5-(1H-imidazol-2-yl)nicotinamide], the figures for the IC50 (in assay [1] (setting [4]); at ABL1 (64-515) [2]; with Ba/F3-BCR-ABL1-WT cells (setting [5])) were 0.008 µM, 0.4 nM and 0.0011 µM, respectively.

As for `N#Cc1ccc(-c2cc(C(=O)Nc3ccc(OC(F)(F)Cl)cc3)cnc2N2CC[C@@H](O)C2)[nH]1` [Example 45, (R)—N-(4-(Chlorodifluoromethoxy)phenyl)-5-(5-cyano-1H-pyrrol-2-yl)-6-(3-hydroxypyrrolidin-1-yl)nicotinamide], the IC50 in assay [1] (setting [4]) was found to be 0.013 µM; at ABL1 (64-515) [2], 0.7 nM; at ABL1 (64-515) [3], 4 nM; with Ba/F3-BCR-ABL1-WT cells (setting [5]), 0.0006 µM.

On to `O=C(Nc1ccc(OC(F)(F)F)cc1)c1cnc(N2C[C@H](CO)[C@@H](O)C2)c(-c2cncs2)c1` (relative stereo) [Example 17, 6-(trans-3-Hydroxy-4-(hydroxymethyl)pyrrolidin-1-yl)-5-(thiazol-5-yl)-N-(4-(trifluoromethoxy)phenyl)nicotinamide], for which the results for the IC50 at ABL1 (64-515) [2] and on ABL1 (64-515) [3] were 1.4 nM and 10 nM, respectively.

`O=C(Nc1ccc(OC(F)(F)Cl)cc1)c1cnc(N2CCC(O)CC2)c(-c2ccn[nH]2)c1` [Example 85, N-(4-(Chlorodifluoromethoxy)phenyl)-6-(4-hydroxypiperidin-1-yl)-5-(1H-pyrazol-5-yl)nicotinamide]: the IC50 at ABL1 (64-515) [2] stood at 0.7 nM; at ABL1 (64-515) [3], 2 nM.

For the molecule `O=C(Nc1ccc(OC(F)(F)Cl)cc1)c1ccc(N2C[C@H](O)[C@@H](O)C2)c(-c2ccn[nH]2)c1` [Example 77, N-(4-(Chlorodifluoromethoxy)phenyl)-4-((3S,4S)-3,4-dihydroxypyrrolidin-1-yl)-3-(1H-pyrazol-5-yl)benzamide], the values for the IC50 (in assay [1] (setting [4]); on ABL1 (64-515) [2]; in the assay on Ba/F3-BCR-ABL1-WT cells (setting [5])) were 0.075 µM, 0.7 nM and 0.0041 µM, respectively.
